One series concerns HCT-116 and MCF-7. As to the kind of experiment: Antiproliferative assay, average over the two cell lines. In kind it is cell-based. The conditions noted are these: Homo sapiens; average of HCT-116 and MCF-7; read-out: Average IC50 (GI50). From the text:
The MTT assay[53,54] was employed to evaluate the antiproliferative efficacy of new compounds 8a–l against two human cancer cell lines: MCF-7 (breast) and HCT-116 (colorectal carcinoma). Erlotinib was employed as the benchmark. Check Appendix A for additional experimental information.
The MTT assay[53,54] was used to evaluate the antiproliferative properties of novel compounds 8a–l against two human cancer cell lines: MCF-7 (breast cancer) and HCT-116 (colorectal carcinoma). Erlotinib was utilized as the reference. […] The provided values represent the means of three experiments ± standard deviation (SD).

Another series concerns Bcl-2. As to the kind of experiment: Apoptotic markers assay: Bcl-2 level in HCT-116 cells. In kind it is cell-based, human. The source says: (§1) Appendix A gives more details.
Apoptosis dysregulation is a hallmark of human cancer, resulting in uncontrolled proliferation, insufficient response to treatments, and the formation of drug-resistant cells.[60] As a result, current anticancer therapies are recognized for their ability to induce apoptosis in cancer cells via both extrinsic and intrinsic routes.[56]
The Bcl-2 protein family, comprising pro-apoptotic proteins (Bax) and anti-apoptotic proteins (Bcl-2), primarily regulates apoptosis. […] As a result, we evaluated the level of Bcl-2 and Bax proteins in HCT-116 colorectal cancer cells subjected to treatments with compounds 8g and 8h. […]
wash solution to every well. Repeat the wash 4 more times for a total of 5 washes. After the final wash, empty or aspirate the wells and firmly tap the plate on a lint free paper towel to remove any remaining wash buffer. Pipet 100 μL of yellow Antibody into each well, except the Blank. Seal the plate and incubate at room temperature on a plate shaker for 1 hour at ~500 rpm. Empty the contents of the wells and wash by adding 400 μL of […]
towel to remove any remaining wash buffer. Add 100 μL of blue Conjugate to each […]
for 30 minutes at ~500 rpm. Empty the contents of the wells and wash by adding 400 μL of wash solution to every well. Repeat the wash 4 more times for a total of 5 washes.
After the final wash, empty or aspirate the wells and firmly tap the plate on a lint free paper towel to remove any remaining wash buffer. Pipet 100 μL of Substrate Solution into each well. Incubate for 30 minutes at room temperature on a plate shaker at ~500 rpm. Pipet 100 μL Stop Solution to each well. Blank the plate reader against the Blank wells, read the optical density at 450 nm. Calculate the average net Optical Density (OD) bound for each standard and sample by subtracting the average Blank OD from the average OD for each standard and sample. […]
Approximate a straight line through the points. The concentration of Bax in the unknowns can be determined by interpolation. […]

For a further series, the target named is EGFR (Homo sapiens, UniProt P00533). In words: EGFR inhibitory assay (EGFR-TK assay).
For a further series, the system named is IL-6. As to the kind of experiment: IL-6 level by qRT-PCR in HCT-116 cells. The note with it: Homo sapiens, HCT-116, read-out: IL-6 (% inhibition). In general terms: In qPCR the cycle at which signal appears reflects the starting amount.
The nature of series [1]: In vitro cytotoxicity against normal human cells (MTT). The conditions noted are these: human, WI-38 cells (normal human diploid cell line), normal human diploid cell line WI-38, MTT. In kind it is cell-based. From the text: (§2) The results indicated a favorable safety margin for the evaluated compounds about normal cells, Table 5.
The test system of the next series is WI-38. The series is described as above. Type of series: cell-based. The note with it: for Selectivity index (SI), HCT-116: WI-38 versus HCT-116; for Selectivity index (SI), MCF-7: WI-38 versus MCF-7; for IC50: normal human diploid cell line WI-38, MTT.
Text: as §2

A further series has as its system Caspase-8. In words: Caspase-8 activation assay in HCT-116 cells. The conditions noted are these: for Caspase-8 fold change: relative to control.
The test system of the next series is Caspase-3. As to the kind of experiment: Caspase-3 activation assay in HCT-116 cells. The note with it: for Caspase-3 fold change: relative to control. Type of series: cell-based, human. How it is done:
as §1
Additionally, activating caspases is essential for both initiating and terminating the apoptotic process.[64] Caspase-3 is an essential enzyme that cleaves several proteins within cells, leading to apoptotic cell death.[65] […]
be read immediately after the Stop Solution is added or within one hour if the microwell strips are stored at 2 - 8°C in the dark. Read the absorbance of each microwell on a spectrophotometer using 450 nm as the primary wavelength.
4.2.5. Caspase-3 activation assay
Allow all reagents to reach room temperature before use. Gently mix all liquid reagents prior to use. Determine the number of 8-well strips needed for the assay. Insert these in the frame(s) for current use. Add 100 μl of the Standard Diluent Buffer to the zero standard wells. Well(s) reserved for chromogen blank should be left empty. Add 100 μl of standards and controls or diluted samples to the appropriate microtiter wells. The sample dilution chosen should be optimized for each experimental system. Tap gently on side of plate to mix. Cover wells with plate cover and incubate for 2 hours at room temperature. Thoroughly aspirate or decant solution from wells and discard the liquid, Wash wells 4 times. Pipette 100 μl of Caspase-3 (Active) Detection Antibody solution into each well except the chromogen blank(s). Tap gently on the side of the plate to mix. Cover plate with plate cover and incubate for 1 hour at room temperature.
Thoroughly aspirate or decant solution from wells and discard the liquid, Wash wells 4 times. Add 100 μl Anti-Rabbit IgG HRP Working Solution to each well except the chromogen blank(s). Prepare the working dilution as described in Preparing IgG HRP.
Cover wells with the plate cover and incubate for 30 minutes at room temperature.
Thoroughly aspirate or decant solution from wells and discard the liquid. Wash wells 4 times. Add 100 μl of Stabilized Chromogen to each well. The liquid in the wells will […]
begin to turn blue. […] The
Tap side of plate gently to mix.
Use a curve fitting software to generate […]
for the dilution in step 3.
4.2.6. Caspase-8/9 activation assay
This lysate was diluted in […]

A word on the IC50: it is the concentration that gives 50% inhibition. For orientation: inhibition means the share of the control response that was lost under treatment.

Values joined by “and” are separate entries in the source; they are usually repeats but may differ in a detail not shown here. Equal entries are not always repeated.

Sequence of EGFR (P00533 669-1210): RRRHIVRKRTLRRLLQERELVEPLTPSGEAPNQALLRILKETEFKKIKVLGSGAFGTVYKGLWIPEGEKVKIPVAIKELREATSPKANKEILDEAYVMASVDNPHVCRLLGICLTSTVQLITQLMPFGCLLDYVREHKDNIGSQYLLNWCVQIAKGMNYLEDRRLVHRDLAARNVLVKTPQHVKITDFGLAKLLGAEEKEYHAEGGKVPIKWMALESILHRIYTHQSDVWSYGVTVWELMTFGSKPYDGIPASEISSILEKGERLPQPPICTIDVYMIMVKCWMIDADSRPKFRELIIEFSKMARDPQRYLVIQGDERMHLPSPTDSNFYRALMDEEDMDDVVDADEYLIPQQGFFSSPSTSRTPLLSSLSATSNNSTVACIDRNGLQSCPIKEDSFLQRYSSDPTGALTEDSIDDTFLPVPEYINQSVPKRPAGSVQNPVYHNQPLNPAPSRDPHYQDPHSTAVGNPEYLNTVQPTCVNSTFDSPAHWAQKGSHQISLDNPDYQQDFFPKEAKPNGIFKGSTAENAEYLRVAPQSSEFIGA
Description for EGFR: Erlotinib was used as positive control in the assay.
To record autophosphorylation level, EGFR kinase assay was carried out on the basis of DELFIA/Time-Resolved Fluorometry. The compounds were first dissolved in DMSO
absolute, subsequent to dilution to appropriate concentration using HEPES (25 mM) at
pH 7.4. Each compound (10 μL) was incubated with recombinant enzyme (10 μL, 5 ng for EGFR, 1:80 dilution in 100 mM HEPES) for 10 min at 25 °C, subsequent to the addition of 5X buffer (10 μL, containing 2 mM MnCl2, 100 μM Na3VO4, 20 mM HEPES and 1 mM DTT) and ATP-MgCl2 (20 μL, containing 0.1 mM ATP and 50 mM MgCl2) and incubation for 1h. The negative and positive controls were included in each plate by the incubation of enzyme either with or without ATP-MgCl2. The liquid was removed after incubation and the plates were washed thrice using a wash buffer.
Europium-tagged antiphosphotyrosine antibody (75 μL, 400 ng) was added to each well followed by incubation of 1h and then washing of the plates using buffer. The enhancement solution was added to each well and the signal was recorded at excitation
The autophosphorylation percentage inhibition by compounds was calculated using the following equation:
Using the curves of percentage inhibition of eight concentrations of each compound,
were from EGFR because the enzyme preparation contained low impurities.
Description for IL-6: The reference molecule was dexamethasone, a drug that uniformly regulates the immune system.
TNF-α and IL6 a determination
determined using of q RT-PCR technique. By using q RTPCR (reference), the amount
treated HCT-116 cells was measured (at the IC50 concentrations). Total RNA was
accordance with the manufacturer's instructions (RNeasy mini kit, Qiagen, Germany).
Following RNA extraction, the Revert Aid First Strand cDNA Synthesis kit (Thermo
Scientific, USA) was used to create cDNA. The Rotor-Gene Q real-time PCR thermal
cycler was used to amplify target cDNA for apoptosis markers and GAPDH [as a
normalization (housekeeping) gene] using one step RT-PCR SYBR® Green kit Master
Mix (Bio-Rad Laboratories, USA). Two microliters of cDNA were combined with one
microliter of forward primer, one microliter of reverse primer, ten microliters of master
mixture, and twenty microliters of nuclease-free water to complete the reaction volume.
Every experiment was carried out three times.
Quantitative Real Time Reverse-Transcriptase PCR (qRT-PCR) primer sequences
TNF-α : R 5'- [sequence] -3'.
IL6 : R 5'- [sequence] -3
GAPDH : R 5’- [sequence]-3’

Consider `CCS(=O)(=O)c1ccc2[nH]nc(C(=O)NNC(=O)NC34CC5CC(CC(C5)C3)C4)c2c1` [Compound 8g, 2-(5-(Ethylsulfonyl)-1H-indazole-3-carbonyl)-N-(adamantan-1-yl)hydrazine-1-carboxamide], for which, in the series on HCT-116 and MCF-7, the concentration for half-maximal inhibition (IC50) turned out to be 26 nM. This compound also had a Bcl-2 level in the series with Bcl-2 of 1.60 ± 0.001 ng/mL. For the same compound, on EGFR, half-maximal inhibition (IC50) was put at 71 ± 5 nM. The inhibition at 0.024 µM in the series on IL-6 stood at 86%. In addition, the 50% inhibitory concentration (IC50) in series [1] was greater than 120 nM. In addition, in the series with WI-38, the “Selectivity index (SI), HCT-116” value is reported as greater than 6.0; the “Selectivity index (SI), MCF-7” value is given as greater than 5.0; the IC50 was greater than 150 nM. Moreover, in the series with Caspase-8, the “Caspase-8 Conc.” value came to 1.80 ± 0.10 ng/mL; the Caspase-8 fold change was 18 fold and 18.00 fold. Moreover, in the series on Caspase-3, the “Caspase-3 Conc.” value was 490 ± 3 pg/mL and 490 ± 5 pg/mL; the Caspase-3 fold change amounted to 7.50 fold.
On to `CCS(=O)(=O)c1ccc2[nH]nc(C(=O)NNC(=O)NC3CCCCCC3)c2c1` [Compound 8h, 2-(5-(Ethylsulfonyl)-1H-indazole-3-carbonyl)-N-(cycloheptyl)hydrazine-1-carboxamide], for which the IC50 in the series on HCT-116 and MCF-7 was 24 nM. This compound came in with a Bcl-2 level in the series with Bcl-2 of 1.30 ± 0.001 ng/mL. The compound also had a Bcl-2 fold reduction in the series on Bcl-2 (relative to untreated control) of 3.90 fold. At EGFR, the IC50 is 68 ± 5 nM. Further, the inhibition at 0.023 µM in the series with IL-6 came out at 91%. For the same compound, the IC50 in series [1] is greater than 120 nM. In the series on WI-38, the “Selectivity index (SI), HCT-116” value was greater than 6.5; the “Selectivity index (SI), MCF-7” value is greater than 6.0; the IC50 is greater than 150 nM. In the series on Caspase-8, the “Caspase-8 Conc.” value was 2.15 ± 0.20 ng/mL; the Caspase-8 fold change is 21 fold and 21.50 fold. In addition, in the series with Caspase-3, the “Caspase-3 Conc.” value was 510 ± 4 pg/mL and 510 ± 5 pg/mL; the Caspase-3 fold change came out at 7.90 fold.

(Values after paper PMC12679585, “Design, synthesis, and characterization of novel 5-ethylsulfonyl-indazole-3-carboxamides as dual VEGFR-2 and EGFR inhibitors: apoptotic antiproliferative and immunomodulatory evaluations” (RSC Advances, 2025).)
